The test system of series [1] is HeLa cells. Nature of the series: Pulse-field gel electrophoresis assay of MNNG-induced DNA damage in HeLa cells. The class given is cell-based, human. The note with it: DPQ 30 μM; ISO-1 100 μM. An excerpt: FIGS. 2A-2D. FIG. 2. MIF is a novel nuclease that cleaves genomic DNA.
In series [2] the test system is HeLa cells. The format is cell-based, human. The note with it: DPQ 30 μM. The protocol:
FIGS. 21A-21J. FIG. 21. […] Scale bar, 20 μm.
For immunocytochemistry, cells were fixed 4 hours after MNNG or NMDA treatment with 4% paraformaldehyde, permeabilized with 0.05% Triton X-100, and blocked with 3% BSA in PBS. AIF was visualized by Donkey anti-Rabbit Cy3 or donkey anti-rabbit 647. MIF was visualized by donkey anti-mouse cy2 (2 μg/ml), donkey anti-goat Cy2 or donkey anti-goat 647. Immunohistochemistry was performed with an antibody against Flag. Immunofluorescence analysis was carried out with an LSM710 confocal laser scanning microscope (Carl Zeiss) as described (9).

In the next series the test system is cortical neurons. The note with it: N-Arg 100 μM.
The target of series [3] is T1, MIF (Homo sapiens, UniProt P14174).
T1 sequence (P14174 2-115 limits assumed): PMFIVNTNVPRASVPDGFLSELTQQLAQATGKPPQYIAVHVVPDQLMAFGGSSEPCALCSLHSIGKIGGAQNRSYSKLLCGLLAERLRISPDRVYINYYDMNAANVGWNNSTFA
The note with it: Mg2+ 10 mM with EDTA 50 mM or Ca2+ 2 mM with EDTA 25 mM.
Protocol: (A) In vitro MIF nuclease assay using pcDNA as substrate. […] (C) Pulse-field gel electrophoresis assay of MNNG-induced DNA damage in MIF deficient HeLa cells and wild type HeLa cells treated with or without DPQ (30 μM) or ISO-1 (100 μM).
The reaction was terminated with loading buffer containing 10 mM EDTA and incubation on ice. […] Small DNA substrates were separated on 15% or 25% TBE-urea polyacrylamide (PAGE) gel or 20% TBE PAGE gel. Then gel was stained with 0.5 μg/ml Ethidium Bromide (EtBr) followed by electrophoretic transfer to nylon membrane. Then, Biotin-labeled DNA is further detected by chemiluminescence using Chemiluminescent Nucleic Acid Detection Module (Thermo Scientific).

Series [4] addresses T1, MIF. Put plainly: MIF nuclease assay with small DNA substrates. The class given is biochemical. Also on record: GST (N, cleaved yes); made in house; host or cells: Escherichia coli; key to Endo-Nuclease Activity / Exo-Nuclease Activity: Y:yes; N:no. Particulars: for Endo-Nuclease Activity / Exo-Nuclease Activity: MIF on the listed DNA substrate. The text has this:
(§1) Human endoG (NM_004435), cyclophilin A (NM_021130), mouse AIF (NM_012019), human MIF (NM_002415) cDNA and their variants were subcloned into glutathione S-transferase (GST)-tagged pGex-6P-1 vector (GE Healthcare) by EcoRI and XhoI restriction sites and verified by sequencing. The protein was expressed and purified from Escherichia coli by glutathione Sepharose. The GST tag was subsequently proteolytically removed for the nuclease assay. MIF point mutants were constructed by polymerase chain reaction (PCR) and verified by sequencing. The purity of MIF proteins that were used in the nuclease assays was further confirmed by mass spectrometry. MIF proteins purified by FPLC were also used in the nuclease assays and no obvious difference was observed between FPLC MIF and non-FPLC MIF proteins. GST protein was used as a negative control in the nuclease assay.

Series [5] concerns the target T1, MIF. Nature of the series: Electrophoretic mobility shift assay (EMSA) of MIF with biotin-labeled DNA substrates. Particulars: 5′ biotin labeled single stranded substrates, 10 mM Mg2+. Also on record: GST (N, cleaved yes); made in house; host or cells: Escherichia coli. The class given is binding. As for the experimental part: EMSA assay was performed using LightShift Chemiluminescent EMSA kit (Thermo Scientific) following the manufactures instruction. Briefly, purified MIF protein (2 μM) was incubated with biotin-labeled DNA substrates (10 nM) in the binding buffer containing 10 mM MgCl2 for 30 min on ice. Then samples were separated on 6% retardation polyacrylamide followed by electrophoretic transfer to nylon membrane.
as §1
A general note: In EMSA bound probe runs differently from free probe, usually more slowly.

{Biotin} = biotin (/5Biosg/) on the ssDNA substrate

Protocol for cortical neurons: (H-J) Nuclear translocation of AIF and MIF after NMDA treatment in the presence or absence PARP inhibitor DPQ or nNOS inhibitor nitro-arginine (N-Arg, 100 μM) in cortical neurons, which was determined by subcellular fractionation. Intensity of MIF and AIF signal is shown in I & J. The experiments were replicated in three independent trials. The experiments were replicated in three independent trials. ***P<0.001, one-way ANOVA.
Primary neuronal cultures from cortex were prepared as previously described (9). Briefly, the cortex was dissected and the cells were dissociated by trituration in modified Eagle's medium (MEM), 20% horse serum, 30 mM glucose, and 2 mM L-glutamine after a 10-min digestion in 0.027% trypsin/saline solution (Gibco-BRL). The neurons were plated on 15-mm multiwell plates coated with polyornithine or on coverslips coated with polyornithine. Neurons were maintained in MEM, 10% horse serum, 30 mM glucose, and 2 mM L-glutamine in a 7% CO2 humidified 37° C. incubator. The growth medium was replaced twice per week. In mature cultures, neurons represent 70 to 90% of the total number of cells. […] Parthanatos was induced by either MNNG (Sigma) in HeLa cells or NMDA (Sigma) in neurons. […]

With `O=C1NCCc2c(OCCCCN3CCCCC3)cccc21` [DPQ, 3,4-dihydro-5[4-(1-piperindinyl)butoxy]-1(2H)-isoquinoline], the “Effect on MNNG induced DNA damage / DNA cleavage” value in the series with HeLa cells [1] was “prevents MNNG induced DNA cleavage”. Further, in the series with HeLa cells [2], the “Accumulation of MIF and AIF in the nucleus after MNNG treatment” value was “prevents accumulation of both MIF and AIF in the nucleus”. In addition, the “Accumulation of MIF and AIF in the nucleus after NMDA administration” value in the series on cortical neurons was “prevents accumulation of both MIF and AIF in the nucleus”.
Take `O=C(O)CN(CCN(CC(=O)O)CC(=O)O)CC(=O)O` [EDTA]: the “Effect on MIF nuclease activity against human genomic DNA” value on MIF [3] was “blocks MIF's nuclease activity”.
With `COC(=O)CC1CC(c2ccc(O)cc2)=NO1` (stereo not drawn) [ISO-1], in the series with HeLa cells [1], the “Effect on MNNG induced DNA damage / DNA cleavage” value is “fails to prevent MNNG induced DNA damage”.
PA^30: 5′ biotin-poly A, SEQ ID NO: 9: in the series with MIF [4], the “Endo-Nuclease Activity” value was “N” and the “Exo-Nuclease Activity” value is listed as “Y”. In addition, the “MIF cleavage of DNA substrate” value with MIF [4] (single or double stranded substrates, ds substrates MIF 1-4 μM) was “cleave”. Besides, in the series with MIF [5], the “MIF binding to ssDNA substrate (DNA/MIF complex formation)” value is reported as “fails to bind”.
As to “RF: 5′ biotin ssDNA MIF substrate, SEQ ID NO: 8 (DNA TCCCAAGTAGCTGGGATTACAGGAAAAAAA; DNA, 5' {Biotin}, backbone and methylation of C not given here)”, in the series with MIF [4], the “Endo-Nuclease Activity” value is on record as “Y” and the “Exo-Nuclease Activity” value is on record as “Y”. Also, the “MIF binding to ssDNA substrate (DNA/MIF complex formation)” value with MIF [5] was “reduces the DNA-MIF binding”.

These data come from US20220249597A1, “MIF INHIBITORS AND METHODS OF USE THEREOF” (The Johns Hopkins University, priority 2016, published 2022).
